Several values for one entry are separate records, joined by “and”; a condition that tells them apart may be missing. Equal values may be shown once. Inconclusive results and toxic doses are left out.
System: P388 leukemia ip, CD2F1 mice, survival T/C
Test: NCI In Vivo Anticancer Drug Screen. Data for tumor model P388 Leukemia (intraperitoneal) in CD2F1 (CDF1) mice
Details: endpoint: median survival time, higher = longer survival
How it was run: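 Mice carrying the transplanted tumor received test compound or vehicle. Survival was recorded in each group, and the value is the treated-group measurement divided by that of the vehicle-treated control group.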

[1] = dose: 100.0 mg/kg/injection, schedule: Q01DX001 (ip), vehicle: Klucel (hydroxypropylcellulose) (HPC)
[2] = dose: 50.0 mg/kg/injection, schedule: Q01DX005 (ip), vehicle: saline with Tween-80
[3] = dose: 50.0 mg/kg/injection, schedule: Q01DX005 (ip), vehicle: saline
[4] = dose: 100.0 mg/kg/injection, schedule: Q01DX005 (ip), vehicle: saline
[5] = dose: 200.0 mg/kg/injection, schedule: Q01DX005 (ip), vehicle: saline
[6] = dose: 50.0 mg/kg/injection, schedule: Q01DX009 (ip), vehicle: saline with Tween-80
[7] = dose: 100.0 mg/kg/injection, schedule: Q01DX009 (ip), vehicle: saline with Tween-80
[8] = dose: 200.0 mg/kg/injection, schedule: Q01DX009 (ip), vehicle: saline with Tween-80
[9] = dose: 100.0 mg/kg/injection, schedule: Q01DX005 (ip), vehicle: saline with Tween-80
[10] = dose: 200.0 mg/kg/injection, schedule: Q01DX005 (ip), vehicle: saline with Tween-80
[11] = dose: 100.0 mg/kg/injection, schedule: Q04DX002 (ip), vehicle: saline with Tween-80
[12] = dose: 200.0 mg/kg/injection, schedule: Q04DX002 (ip), vehicle: saline with Tween-80
[13] = dose: 400.0 mg/kg/injection, schedule: Q04DX002 (ip), vehicle: saline with Tween-80
[14] = dose: 60.0 mg/kg/injection, schedule: Q01DX005 (ip), vehicle: saline with Tween-80
[15] = dose: 120.0 mg/kg/injection, schedule: Q01DX005 (ip), vehicle: saline with Tween-80
[16] = dose: 50.0 mg/kg/injection, schedule: Q01DX009 (ip), vehicle: saline
[17] = dose: 100.0 mg/kg/injection, schedule: Q01DX009 (ip), vehicle: saline
[18] = dose: 12.5 mg/kg/injection, schedule: Q01DX009 (ip), vehicle: other
[19] = dose: 25.0 mg/kg/injection, schedule: Q01DX009 (ip), vehicle: other

COc1cc(C2c3cc4c(c(OC5OC(CO)C(O)C5O)c3CC3COC(=O)C32)OCO4)cc(OC)c1OC (configuration not stated)
T/C [1]: 108 % of control
T/C (dose: 200.0 mg/kg/injection, schedule: Q01DX001 (ip), vehicle: Klucel (hydroxypropylcellulose) (HPC)): 108 % of control
T/C (dose: 400.0 mg/kg/injection, schedule: Q01DX001 (ip), vehicle: Klucel (hydroxypropylcellulose) (HPC)): 113 % of control

C[C@H](N)C(=O)N[C@@H]1[C@H]2C(=C(O)C[C@@H](O)[C@@H]2O)C(=O)O[C@@H]1C
T/C (dose: 150.0 mg/kg/injection, schedule: Q01DX005 (ip), vehicle: saline): 115 % of control
T/C (dose: 600.0 mg/kg/injection, schedule: Q01DX005 (ip), vehicle: suspension in saline): 153 % of control

Cc1cc2c(cc1C)C(=O)c1c(C)ccc(C)c1C2=O
T/C (dose: 12.5 mg/kg/injection, schedule: Q01DX005 (ip), vehicle: saline with Tween-80): 99 % of control
T/C (dose: 25.0 mg/kg/injection, schedule: Q01DX005 (ip), vehicle: saline with Tween-80): 99 % of control
T/C [2]: 86 % of control and 89 % of control

CC1(O)CCC(O)CC1CC(=O)O (configuration not stated)
T/C [3]: 107 % of control
T/C [4]: 100 % of control
T/C [5]: 105 % of control

CC1(C)O[C@@H]2C[C@H]3[C@@H]4CCC5=CC(=O)CC[C@]5(C)[C@@]4(F)[C@@H](O)C[C@]3(C)[C@]2(C(=O)CO)O1
T/C (dose: 12.5 mg/kg/injection, schedule: Q01DX009 (ip), vehicle: saline with Tween-80): 109 % of control
T/C (dose: 25.0 mg/kg/injection, schedule: Q01DX009 (ip), vehicle: saline with Tween-80): 86 % of control

O=C1O/C(=C\c2ccccc2)c2c(Br)c(Br)c(Br)c(Br)c21
T/C [6]: 94 % of control
T/C [7]: 93 % of control
T/C [8]: 99 % of control
T/C (dose: 400.0 mg/kg/injection, schedule: Q01DX009 (ip), vehicle: saline with Tween-80): 99 % of control

N#CC1C(=O)NC(=S)NC1c1ccco1 (configuration not stated)
T/C (dose: 50.0 mg/kg/injection, schedule: Q01DX009 (ip), vehicle: Klucel (hydroxypropylcellulose) (HPC)): 100 % of control
T/C (dose: 100.0 mg/kg/injection, schedule: Q01DX009 (ip), vehicle: Klucel (hydroxypropylcellulose) (HPC)): 95 % of control
T/C (dose: 200.0 mg/kg/injection, schedule: Q01DX009 (ip), vehicle: Klucel (hydroxypropylcellulose) (HPC)): 92 % of control

CC(=O)n1c(Cl)c(/C=N/Nc2ccccc2[N+](=O)[O-])c2ccccc21
T/C (dose: 25.0 mg/kg/injection, schedule: Q01DX001 (ip), vehicle: Klucel (hydroxypropylcellulose) (HPC)): 91 % of control
T/C (dose: 50.0 mg/kg/injection, schedule: Q01DX001 (ip), vehicle: Klucel (hydroxypropylcellulose) (HPC)): 99 % of control
T/C [1]: 87 % of control and 91 % of control

COCCn1nc(-c2ccc(Cl)cc2)c(-c2ccc(Cl)cc2)c(C(C)=O)c1=O
T/C [2]: 100 % of control
T/C [9]: 100 % of control
T/C [10]: 93 % of control

CN(CCC(=O)/C(=C\c1ccccc1)c1ccc(Cl)cc1)Cc1ccccc1
T/C (dose: 0.4 mg/kg/injection, schedule: Q01DX005 (ip), vehicle: saline with Tween-80): 101 % of control
T/C (dose: 0.8 mg/kg/injection, schedule: Q01DX005 (ip), vehicle: saline with Tween-80): 102 % of control
T/C (dose: 1.6 mg/kg/injection, schedule: Q01DX005 (ip), vehicle: saline with Tween-80): 109 % of control
T/C (dose: 3.12 mg/kg/injection, schedule: Q01DX005 (ip), vehicle: saline with Tween-80): 109 % of control
T/C (dose: 6.25 mg/kg/injection, schedule: Q01DX005 (ip), vehicle: saline with Tween-80): 111 % of control

O=C1OCC2OCCC12 (configuration not stated)
T/C [3]: 100 % of control
T/C [4]: 100 % of control
T/C [5]: 101 % of control

CO/C=C(/C#N)S(=O)(=O)/C(C#N)=C/OC
T/C [2]: 100 % of control
T/C [9]: 112 % of control
T/C [10]: 104 % of control

CCCCCCCCCCCCN1CN=C(N)N(C#N)C1
T/C [11]: 92 % of control
T/C [12]: 99 % of control
T/C [13]: 90 % of control

O=C1NN=C2CCCCCCCCCCC12 (configuration not stated)
T/C [6]: 96 % of control
T/C [7]: 89 % of control
T/C [8]: 89 % of control

COC1=C(OC)C(=O)C(N2CCCCC2)=C(CO)C1=O
T/C (dose: 60.0 mg/kg/injection, schedule: Q01DX005 (ip), vehicle: saline + Tween-80 + alcohol): 88 % of control
T/C (dose: 120.0 mg/kg/injection, schedule: Q01DX005 (ip), vehicle: saline + Tween-80 + alcohol): 94 % of control
T/C (dose: 240.0 mg/kg/injection, schedule: Q01DX005 (ip), vehicle: saline + Tween-80 + alcohol): 107 % of control

COC12CCCC3(OCCO3)C1C(Cl)C2Cl (configuration not stated)
T/C [14]: 98 % of control
T/C [15]: 88 % of control

CC1(C)CC(=O)C=C(n2ccccc2=O)C1
T/C [14]: 97 % of control
T/C [15]: 102 % of control
T/C (dose: 240.0 mg/kg/injection, schedule: Q01DX005 (ip), vehicle: saline with Tween-80): 97 % of control

Cc1cc(N=[N+]=[N-])c2cc(F)ccc2n1
T/C (dose: 30.0 mg/kg/injection, schedule: Q01DX005 (ip), vehicle: saline with Tween-80): 92 % of control
T/C [14]: 90 % of control and 92 % of control

O=c1[nH]cnc2c1CCc1ccccc1-2
T/C [11]: 93 % of control
T/C [12]: 100 % of control
T/C [13]: 102 % of control

S=C(Nc1ccccc1)SCc1ccc(Cl)cc1
T/C [16]: 104 % of control
T/C [17]: 103 % of control
T/C (dose: 200.0 mg/kg/injection, schedule: Q01DX009 (ip), vehicle: saline): 108 % of control

[CH3][Sn]([CH3])([n]1cnc(N)nc1=O)[n]1cnc(N)nc1=O
T/C (dose: 6.25 mg/kg/injection, schedule: Q01DX005 (ip), vehicle: Klucel (hydroxypropylcellulose) (HPC)): 108 % of control
T/C (dose: 12.5 mg/kg/injection, schedule: Q01DX005 (ip), vehicle: Klucel (hydroxypropylcellulose) (HPC)): 120 % of control and 90 % of control
T/C (dose: 25.0 mg/kg/injection, schedule: Q01DX005 (ip), vehicle: Klucel (hydroxypropylcellulose) (HPC)): 112 % of control and 113 % of control
T/C (dose: 50.0 mg/kg/injection, schedule: Q01DX005 (ip), vehicle: Klucel (hydroxypropylcellulose) (HPC)): 105 % of control and 118 % of control

COc1cccc2c1C(=O)c1c(O)c3c(c(O)c1C2=O)CC(O)(/C(C)=N/NC(=O)CCCCCCC(=O)N/N=C(\C)C1(O)Cc2c(O)c4c(c(O)c2C(OC2CC(N)C(O)C(C)O2)C1)C(=O)c1c(OC)cccc1C4=O)CC3OC1CC(N)C(O)C(C)O1 (configuration not stated)
T/C (dose: 2.0 mg/kg/injection, schedule: Q01DX009 (ip), vehicle: water): 162 % of control
T/C (dose: 4.0 mg/kg/injection, schedule: Q01DX009 (ip), vehicle: water): 212 % of control
T/C (dose: 8.0 mg/kg/injection, schedule: Q01DX009 (ip), vehicle: water): 245 % of control
T/C (dose: 16.0 mg/kg/injection, schedule: Q01DX009 (ip), vehicle: water): 87 % of control

C=CS(C=C)=NS(=O)(=O)c1ccc(C)cc1
T/C (dose: 6.25 mg/kg/injection, schedule: Q01DX009 (ip), vehicle: other): 107 % of control and 110 % of control and 120 % of control
T/C [18]: 107 % of control and 118 % of control and 120 % of control
T/C [19]: 117 % of control

CN(C)P1(N(C)C)=NP(N(C)C)(N(C)C)=NP(N(C)C)(N(C)C)=N1
T/C (dose: 12.5 mg/kg/injection, schedule: Q01DX009 (ip), vehicle: saline): 99 % of control
T/C (dose: 25.0 mg/kg/injection, schedule: Q01DX009 (ip), vehicle: saline): 89 % of control
T/C (dose: 25.0 mg/kg/injection, schedule: Q04DX003 (ip), vehicle: saline): 99 % of control
T/C [16]: 90 % of control
T/C (dose: 50.0 mg/kg/injection, schedule: Q04DX003 (ip), vehicle: saline): 100 % of control
T/C [17]: 96 % of control
T/C (dose: 100.0 mg/kg/injection, schedule: Q04DX003 (ip), vehicle: saline): 100 % of control

CC1(C)CC(C)(OC(=O)c2ccc(F)cc2)N=N1 (configuration not stated)
T/C [18]: 103 % of control
T/C [19]: 113 % of control
T/C (dose: 50.0 mg/kg/injection, schedule: Q01DX009 (ip), vehicle: other): 108 % of control
T/C (dose: 100.0 mg/kg/injection, schedule: Q01DX009 (ip), vehicle: other): 113 % of control
T/C (dose: 200.0 mg/kg/injection, schedule: Q01DX009 (ip), vehicle: other): 118 % of control

Source: PubChem BioAssay AID330 (DTP/NCI, 2004)
